{"source": "patent US8492403B2", "about": "“Bicyclic derivatives as modulators of voltage gated ion channels” (Vertex Pharmaceuticals Incorporated, priority 2005, dated 2013)", "origin": "cited, not measured here", "key": {"[1]": {"conditions": "neuropathic pain; cited from earlier work"}, "NaV 1.3": {"target": "NaV 1.3 (Homo sapiens, UniProt Q9NY46)", "sequence (Q9NY46 whole entry, looked up)": "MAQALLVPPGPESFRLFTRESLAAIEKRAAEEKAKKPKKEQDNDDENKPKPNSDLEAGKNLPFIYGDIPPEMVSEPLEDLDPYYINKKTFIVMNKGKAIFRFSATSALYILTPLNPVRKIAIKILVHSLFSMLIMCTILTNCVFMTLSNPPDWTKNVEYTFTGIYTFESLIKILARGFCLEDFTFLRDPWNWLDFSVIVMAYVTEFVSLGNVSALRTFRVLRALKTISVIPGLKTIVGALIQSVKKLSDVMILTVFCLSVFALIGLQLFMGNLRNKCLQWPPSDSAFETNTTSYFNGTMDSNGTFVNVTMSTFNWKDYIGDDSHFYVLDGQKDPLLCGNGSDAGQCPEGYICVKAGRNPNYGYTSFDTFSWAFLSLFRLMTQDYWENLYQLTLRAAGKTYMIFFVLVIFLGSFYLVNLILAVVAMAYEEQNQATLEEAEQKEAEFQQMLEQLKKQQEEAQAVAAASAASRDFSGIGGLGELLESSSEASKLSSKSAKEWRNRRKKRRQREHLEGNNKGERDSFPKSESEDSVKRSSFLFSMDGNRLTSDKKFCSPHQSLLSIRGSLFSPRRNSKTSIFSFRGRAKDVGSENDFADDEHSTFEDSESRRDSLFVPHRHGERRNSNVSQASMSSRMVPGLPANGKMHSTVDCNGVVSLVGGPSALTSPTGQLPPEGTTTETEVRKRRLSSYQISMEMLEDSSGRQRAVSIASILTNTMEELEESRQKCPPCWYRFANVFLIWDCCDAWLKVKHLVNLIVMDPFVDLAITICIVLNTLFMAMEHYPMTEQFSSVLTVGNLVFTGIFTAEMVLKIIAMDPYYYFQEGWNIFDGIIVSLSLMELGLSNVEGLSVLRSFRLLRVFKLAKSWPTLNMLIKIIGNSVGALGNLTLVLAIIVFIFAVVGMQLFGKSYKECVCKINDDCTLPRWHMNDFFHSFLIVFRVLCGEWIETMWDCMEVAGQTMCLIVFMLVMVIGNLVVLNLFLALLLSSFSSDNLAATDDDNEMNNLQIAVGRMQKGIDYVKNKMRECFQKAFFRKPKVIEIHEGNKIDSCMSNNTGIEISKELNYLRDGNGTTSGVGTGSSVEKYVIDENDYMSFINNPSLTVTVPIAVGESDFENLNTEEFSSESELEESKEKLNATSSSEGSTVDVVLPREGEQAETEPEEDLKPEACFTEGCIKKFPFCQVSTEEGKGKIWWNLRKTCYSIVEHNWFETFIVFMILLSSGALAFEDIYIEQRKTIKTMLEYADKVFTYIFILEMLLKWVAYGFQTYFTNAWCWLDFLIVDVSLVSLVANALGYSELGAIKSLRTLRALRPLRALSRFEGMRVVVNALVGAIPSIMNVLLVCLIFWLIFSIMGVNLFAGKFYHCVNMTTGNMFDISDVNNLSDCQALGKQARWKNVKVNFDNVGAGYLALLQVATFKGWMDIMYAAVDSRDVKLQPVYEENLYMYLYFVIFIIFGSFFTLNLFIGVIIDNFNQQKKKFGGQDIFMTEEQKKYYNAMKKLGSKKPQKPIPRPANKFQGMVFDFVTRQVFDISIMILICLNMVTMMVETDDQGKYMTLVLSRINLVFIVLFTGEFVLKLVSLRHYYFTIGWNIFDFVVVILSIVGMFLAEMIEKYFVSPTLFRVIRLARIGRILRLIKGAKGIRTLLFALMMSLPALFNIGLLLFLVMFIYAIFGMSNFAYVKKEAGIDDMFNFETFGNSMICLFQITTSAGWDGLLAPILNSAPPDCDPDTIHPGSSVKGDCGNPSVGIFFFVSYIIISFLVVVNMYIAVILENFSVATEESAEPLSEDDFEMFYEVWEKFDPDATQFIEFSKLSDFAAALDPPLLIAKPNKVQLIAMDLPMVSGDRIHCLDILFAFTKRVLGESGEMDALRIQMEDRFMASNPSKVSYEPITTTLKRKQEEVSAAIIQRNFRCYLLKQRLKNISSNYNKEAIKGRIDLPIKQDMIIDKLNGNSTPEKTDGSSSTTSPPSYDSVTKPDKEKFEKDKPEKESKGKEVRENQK", "conditions": "read-out: TTX IC50; cited from earlier work"}, "NaV 1.8": {"target": "NaV 1.8 (Homo sapiens, UniProt Q9Y5Y9)", "sequence (Q9Y5Y9 whole entry, looked up)": "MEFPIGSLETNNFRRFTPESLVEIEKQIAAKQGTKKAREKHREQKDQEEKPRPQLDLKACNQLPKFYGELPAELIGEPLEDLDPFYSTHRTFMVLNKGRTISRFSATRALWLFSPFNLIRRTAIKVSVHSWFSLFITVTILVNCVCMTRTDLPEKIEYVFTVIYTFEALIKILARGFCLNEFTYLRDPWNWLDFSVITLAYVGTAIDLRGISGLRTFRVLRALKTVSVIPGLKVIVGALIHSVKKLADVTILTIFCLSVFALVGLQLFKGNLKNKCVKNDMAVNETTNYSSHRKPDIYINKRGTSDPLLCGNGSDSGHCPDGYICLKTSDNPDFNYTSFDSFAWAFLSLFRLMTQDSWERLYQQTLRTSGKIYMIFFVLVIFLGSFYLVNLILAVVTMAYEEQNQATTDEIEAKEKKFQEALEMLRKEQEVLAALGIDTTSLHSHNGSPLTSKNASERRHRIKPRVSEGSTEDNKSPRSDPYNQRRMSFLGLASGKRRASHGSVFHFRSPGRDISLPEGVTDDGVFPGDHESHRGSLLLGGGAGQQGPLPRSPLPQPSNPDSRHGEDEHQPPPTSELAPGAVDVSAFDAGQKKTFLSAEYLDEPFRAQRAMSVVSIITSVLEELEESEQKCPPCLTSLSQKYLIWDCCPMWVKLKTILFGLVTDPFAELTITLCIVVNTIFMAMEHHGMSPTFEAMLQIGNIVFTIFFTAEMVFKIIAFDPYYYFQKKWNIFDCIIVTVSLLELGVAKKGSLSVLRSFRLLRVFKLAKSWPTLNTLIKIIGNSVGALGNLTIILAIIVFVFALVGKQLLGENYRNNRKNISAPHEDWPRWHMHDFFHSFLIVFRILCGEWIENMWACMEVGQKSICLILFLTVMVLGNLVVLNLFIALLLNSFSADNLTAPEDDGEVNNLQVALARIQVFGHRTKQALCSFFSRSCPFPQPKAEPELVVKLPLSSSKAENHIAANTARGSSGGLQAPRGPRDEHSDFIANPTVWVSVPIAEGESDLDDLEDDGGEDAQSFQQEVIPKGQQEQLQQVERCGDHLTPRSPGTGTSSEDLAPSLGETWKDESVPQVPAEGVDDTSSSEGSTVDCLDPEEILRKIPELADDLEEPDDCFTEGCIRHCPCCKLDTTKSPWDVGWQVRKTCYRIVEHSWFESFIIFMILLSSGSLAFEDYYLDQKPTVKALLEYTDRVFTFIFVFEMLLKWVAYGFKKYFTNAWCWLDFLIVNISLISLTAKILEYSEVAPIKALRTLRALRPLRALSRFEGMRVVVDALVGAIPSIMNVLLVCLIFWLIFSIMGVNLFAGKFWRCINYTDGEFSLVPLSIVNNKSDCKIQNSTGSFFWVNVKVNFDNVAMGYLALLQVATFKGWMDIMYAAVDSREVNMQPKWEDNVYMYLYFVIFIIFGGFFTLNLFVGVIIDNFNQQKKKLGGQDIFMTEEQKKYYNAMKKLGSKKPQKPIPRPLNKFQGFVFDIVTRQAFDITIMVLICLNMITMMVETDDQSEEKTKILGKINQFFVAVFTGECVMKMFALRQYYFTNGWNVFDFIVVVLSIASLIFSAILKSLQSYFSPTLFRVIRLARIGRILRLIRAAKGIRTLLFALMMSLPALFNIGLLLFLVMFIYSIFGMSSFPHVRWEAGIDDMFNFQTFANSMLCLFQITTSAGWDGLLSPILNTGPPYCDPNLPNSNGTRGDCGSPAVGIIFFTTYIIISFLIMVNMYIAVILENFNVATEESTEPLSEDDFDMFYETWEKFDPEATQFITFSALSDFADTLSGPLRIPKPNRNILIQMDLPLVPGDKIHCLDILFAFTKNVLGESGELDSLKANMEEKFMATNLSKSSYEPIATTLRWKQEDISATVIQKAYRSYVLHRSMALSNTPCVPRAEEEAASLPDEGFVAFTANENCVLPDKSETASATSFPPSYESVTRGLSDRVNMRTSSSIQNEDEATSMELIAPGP", "conditions": "read-out: TTX IC50; cited from earlier work"}}, "data": [{"smiles": "NCC1(CC(=O)O)CCCCC1", "note": "[Gabapentin]", "values": [{"measurement": "share of patients in which it works", "setting": "[1]", "value": 60, "unit": "%"}]}, {"smiles": "NC1=N[C@H](O)[C@H]2[C@H]3O[C@]4(O)O[C@@H]([C@@H](O)[C@@]2(N1)[C@@H]4O)[C@]3(O)CO", "note": "[TTX, tetrodotoxin]", "values": [{"measurement": "IC50", "setting": "NaV 1.3", "value": 15, "unit": "nM"}, {"measurement": "IC50", "setting": "NaV 1.8", "value": "> 50000", "unit": "nM"}]}]}
